Experimental data: ChEMBL document CHEMBL6092167, “Phosphorylation as an Effective Tool to Improve Stability and Reduce Toxicity of Antimicrobial Peptides” (J Med Chem, 2024)
Values after ≈ are worked out from the molar mass of the structure shown. Active and inactive are the calls of the source. No cut-off for these calls is given here. Non-standard residues stand in square brackets, D forms with d. Residues, ends and D or L forms follow the SMILES beside them. Bip = N[C@@H](Cc1ccc(-c2ccccc2)cc1)C(=O)O; pT = C[C@@H](OP(=O)(O)O)[C@H](N)C(=O)O

Legend:
Staphylococcus aureus [1] = experiment: Antibacterial activity against Staphylococcus aureus ATCC 25923 infected in BALB/c mouse systemic infection model assessed as improved alveoli dilation at 1.09 mg/kg, ip pre-infected for 2 hrs followed by compound addition and measured after 8 hrs postinfection; assay type: functional, organism-based; details: time 6.0 hrs
Staphylococcus aureus [2] = experiment: Antibacterial activity against methicillin resistant Staphylococcus aureus ATCC 33591 incubated for 18 to 24 hrs by broth microdilution method; assay type: functional; details: time 18-24 hrs
Acinetobacter baumannii = experiment: Antibacterial activity against Acinetobacter baumannii ATCC 19606 incubated for 18 to 24 hrs by broth microdilution method; assay type: functional; details: time 18-24 hrs
Staphylococcus aureus [3] = experiment: Antibacterial activity against Staphylococcus aureus ATCC 25923 incubated for 18 to 24 hrs by broth microdilution method; assay type: functional; details: time 18-24 hrs
Bacillus subtilis = experiment: Antibacterial activity against Bacillus subtilis ATCC 23857 incubated for 18 to 24 hrs by broth microdilution method; assay type: functional; details: time 18-24 hrs
Staphylococcus aureus [4] = experiment: Antibacterial activity against Staphylococcus aureus ATCC 25923 infected in BALB/c mouse systemic infection model assessed as reduction in bacterial load in liver at 1.09 mg/kg, ip pre-infected for 2 hrs followed by compound addition and measured after 8 hrs postinfection; assay type: functional, organism-based; details: time 6.0 hrs
Pseudomonas aeruginosa [5] = experiment: Antibacterial activity against Pseudomonas aeruginosa ATCC 27853 incubated for 18 to 24 hrs by broth microdilution method; assay type: functional; details: time 18-24 hrs
Staphylococcus aureus [6] = experiment: Antibacterial activity against Staphylococcus aureus ATCC 25923 infected in BALB/c mouse systemic infection model assessed as reduction in bacterial load in lung at 1.09 mg/kg, ip pre-infected for 2 hrs followed by compound addition and measured after 8 hrs postinfection; assay type: functional, organism-based; details: time 6.0 hrs
Staphylococcus aureus [7] = experiment: Antibacterial activity against Staphylococcus aureus ATCC 25923 infected in BALB/c mouse systemic infection model assessed as reduction in inflammatory response in lung tissue at 1.09 mg/kg, ip pre-infected for 2 hrs followed by compound addition and measured after 8 hrs postinfection; assay type: functional, organism-based; details: time 6.0 hrs
Staphylococcus aureus [8] = experiment: Antibacterial activity against Staphylococcus aureus ATCC 25923 infected in BALB/c mouse systemic infection model assessed as reduction in bacterial load in kidney at 1.09 mg/kg, ip pre-infected for 2 hrs followed by compound addition and measured after 8 hrs postinfection; assay type: functional, organism-based; details: time 6.0 hrs
Staphylococcus aureus [9] = experiment: Antibacterial activity against Staphylococcus aureus ATCC 25923 infected in BALB/c mouse systemic infection model assessed as reduction in bacterial load in spleen at 1.09 mg/kg, ip pre-infected for 2 hrs followed by compound addition and measured after 8 hrs postinfection; assay type: functional, organism-based; details: time 6.0 hrs
Staphylococcus aureus [10] = experiment: Antibacterial activity against methicillin resistant Staphylococcus aureus 48 incubated for 18 to 24 hrs by broth microdilution method; assay type: functional; details: time 18-24 hrs
Klebsiella pneumoniae [11] = experiment: Antibacterial activity against Klebsiella pneumoniae ATCC 700603 incubated for 18 to 24 hrs by broth microdilution method; assay type: functional; details: time 18-24 hrs
Staphylococcus aureus [12] = experiment: Antibacterial activity against Staphylococcus aureus ATCC 25923 infected in BALB/c mouse systemic infection model assessed as reduction in tissue hemorrhage at 1.09 mg/kg, ip pre-infected for 2 hrs followed by compound addition and measured after 8 hrs postinfection; assay type: functional, organism-based; details: time 6.0 hrs
Pseudomonas aeruginosa [13] = experiment: Antibacterial activity against Pseudomonas aeruginosa 119 incubated for 18 to 24 hrs by broth microdilution method; assay type: functional; details: time 18-24 hrs
Staphylococcus aureus [14] = experiment: Antibacterial activity against Staphylococcus aureus 794 incubated for 18 to 24 hrs by broth microdilution method; assay type: functional; details: time 18-24 hrs
Escherichia coli [15] = experiment: Antibacterial activity against Escherichia coli 780 incubated for 18 to 24 hrs by broth microdilution method; assay type: functional; details: time 18-24 hrs
[16] = Hemolytic activity in mouse erythrocyte incubated for 1 hr by microplate reader assay; assay type: toxicity, cell-based
Escherichia coli [17] = experiment: Antibacterial activity against Escherichia coli ATCC 25922 incubated for 18 to 24 hrs by broth microdilution method; assay type: functional; details: time 18-24 hrs
Escherichia coli [18] = experiment: Antibacterial activity against Escherichia coli 850 incubated for 18 to 24 hrs by broth microdilution method; assay type: functional; details: time 18-24 hrs
[19] = Cytotoxicity against HEK293T cells incubated for 1 hr by fluorescence based microplate reader assay; assay type: toxicity, cell-based, HEK-293T; details: human
Klebsiella pneumoniae [20] = experiment: Drug resistance development in Klebsiella pneumoniae ATCC 700603 assessed as fold increase in MIC measured after 7 passage; assay type: functional
Staphylococcus aureus [21] = experiment: Bactericidal activity against Staphylococcus aureus ATCC 25923 at 2 times MIC incubated for 24 hrs by time kill assay; assay type: functional
Staphylococcus aureus [22] = experiment: Inhibition of biofilm formation in Staphylococcus aureus ATCC 25923 at 2 times MIC incubated for 24 hrs by crystal violet staining based assay; assay type: functional, organism-based
Staphylococcus aureus [23] = experiment: Antibiofilm activity against Staphylococcus aureus ATCC 25923 assessed as eradication of preformed biofilms at 4 times MIC incubated for 24 hrs by crystal violet staining based assay; assay type: functional, organism-based

Row | Molecule | MIC (Staphylococcus aureus [2]) [µM] | MIC (Acinetobacter baumannii) [µM] | MIC (Staphylococcus aureus [3]) [µM] | MIC (Bacillus subtilis) [µM] | MIC (Pseudomonas aeruginosa [5]) [µM] | MIC (Staphylococcus aureus [10]) [µM] | MIC (Klebsiella pneumoniae [11]) [µM] | MIC (Pseudomonas aeruginosa [13]) [µM] | MIC (Staphylococcus aureus [14]) [µM] | MIC (Escherichia coli [15]) [µM] | MHC [16] [µM] | MIC (Escherichia coli [17]) [µM] | MIC (Escherichia coli [18]) [µM] | CC50 at 1 h [19] [µM] | also measured
1 | CNC(C)[C@@H]1CC[C@@H](N)[C@@H](O[C@H]2[C@H](O)[C@@H](O[C@H]3OC[C@](C)(O)[C@H](NC)[C@H]3O)[C@H](N)C[C@@H]2N)O1.CN[C@@H]1[C@@H](O)[C@@H](O[C@@H]2[C@@H](O)[C@H](O[C@H]3O[C@H](C(C)N)CC[C@H]3N)[C@@H](N)C[C@H]2N)OC[C@]1(C)O.CN[C@@H]1[C@@H](O)[C@@H](O[C@@H]2[C@@H](O)[C@H](O[C@H]3O[C@H](CN)CC[C@H]3N)[C@@H](N)C[C@H]2N)OC[C@]1(C)O (stereo partly specified) | 32 | 8 | < 1 | < 1 | < 1 | 64 | 8 | > 128 | 64 |  |  |  |  |  | Activity (Staphylococcus aureus [1]): inactive; Activity (Staphylococcus aureus [4]): Active; Activity (Staphylococcus aureus [6]): Active; Activity (Staphylococcus aureus [7]): Active; Activity (Staphylococcus aureus [8]): Active; Activity (Staphylococcus aureus [9]): Active; Activity (Staphylococcus aureus [12]): Active
2 | CC(C)C[C@H](NC(=O)[C@H](CC(C)C)NC(=O)[C@@H](NC(=O)[C@H](CCCCN)NC(=O)[C@H](CC(C)C)NC(=O)[C@H](CCCNC(=N)N)NC(=O)[C@H](CCCCN)NC(=O)[C@H](Cc1ccc(-c2ccccc2)cc1)NC(=O)[C@H](CC(C)C)NC(=O)CN)[C@@H](C)OP(=O)(O)O)C(N)=O (H-GL[Bip]KRLK[pT]LL-NH2) | 54 (≈ 72.6 µg/mL) | 32 (≈ 43 µg/mL) | 64 (≈ 86 µg/mL) | 16 (≈ 21.5 µg/mL) | 16 (≈ 21.5 µg/mL) | 32 (≈ 43 µg/mL) | 64 (≈ 86 µg/mL) | 32 (≈ 43 µg/mL) | 16 (≈ 21.5 µg/mL) | 16 (≈ 21.5 µg/mL) | 125.83 | 32 (≈ 43 µg/mL) | 32 (≈ 43 µg/mL) | 112 | 
3 | NC[C@H]1O[C@H](O[C@H]2[C@H](O)[C@@H](O[C@H]3O[C@H](CO)[C@@H](O)[C@H](N)[C@H]3O)[C@H](N)C[C@@H]2N)[C@H](O)[C@@H](O)[C@@H]1O [KANAMYCIN] | > 128 | 8 (≈ 3.88 µg/mL) | < 1 | < 1 | > 128 | > 128 | 32 (≈ 15.5 µg/mL) | 64 (≈ 31 µg/mL) | 64 (≈ 31 µg/mL) | 32 (≈ 15.5 µg/mL) |  | 8 (≈ 3.88 µg/mL) | > 128 |  | fold change (FC) (Klebsiella pneumoniae [20]): 128
4 | CO[C@H]1/C=C/O[C@@]2(C)Oc3c(C)c(O)c4c(O)c(c(/C=N/N5CCN(C)CC5)c(O)c4c3C2=O)NC(=O)/C(C)=C\C=C\[C@H](C)[C@H](O)[C@@H](C)[C@@H](O)[C@@H](C)[C@H](OC(C)=O)[C@@H]1C [RIFAMPIN] |  | 1 (≈ 0.823 µg/mL) | < 1 | < 1 | 32 (≈ 26.3 µg/mL) |  | 32 (≈ 26.3 µg/mL) |  |  |  |  | 8 (≈ 6.58 µg/mL) |  |  | fold change (FC) (Klebsiella pneumoniae [20]): 128
5 | CN[C@H](CC(C)C)C(=O)N[C@H]1C(=O)N[C@@H](CC(N)=O)C(=O)N[C@H]2C(=O)N[C@H]3C(=O)N[C@H](C(=O)N[C@H](C(=O)O)c4cc(O)cc(O)c4-c4cc3ccc4O)[C@H](O)c3ccc(c(Cl)c3)Oc3cc2cc(c3O[C@@H]2O[C@H](CO)[C@@H](O)[C@H](O)[C@H]2O[C@H]2C[C@](C)(N)[C@H](O)[C@H](C)O2)Oc2ccc(cc2Cl)[C@H]1O [VANCOMYCIN] | < 1 | 64 (≈ 92.8 µg/mL) | < 1 | < 1 | > 128 | < 1 | > 128 | > 128 | 128 (≈ 186 µg/mL) | 128 (≈ 186 µg/mL) |  | 128 (≈ 186 µg/mL) | 128 (≈ 186 µg/mL) |  | Activity (Staphylococcus aureus [21]): 100%; inhibition (Staphylococcus aureus [22]): Active; Activity (Staphylococcus aureus [23]): Active; Showed Poor Efficacy
6 | H-GLLKRWKTLL-NH2 | 128 | > 128 | > 128 | 8 | 8 | 128 | 64 | 32 | 32 | 32 | > 256 | 64 | 32 | > 128 | 
7 | H-GLLKRWKYLL-NH2 | 32 | 64 | 64 | 4 | 8 | 32 | 64 | 16 | 16 | 8 | > 256 | 16 | 16 | > 128 | 
8 | H-GLWKRLKTLL-NH2 | 8 | 32 | 16 | 4 | 4 | 8 | 8 | 16 | 8 | 8 | > 256 | 8 | 8 | > 128 | 
9 | H-GLWKRLKYLL-NH2 | 8 | 8 | 8 | 4 | 8 | 8 | 8 | 16 | 8 | 8 | 182.72 | 8 | 8 | 115 | 
